Test results taken from patent publication US10562909B2, “Fused quadracyclic compounds, compositions and uses thereof” (Tabomedex Biosciences, LLC, priority 2016, dated 2020).

What follows are molecules tested against MAPKAPK2 (Homo sapiens, UniProt P49137) (assay: MK2 Enzymatic Assay). Settings: 0.5 nM MAPKAPK2, 3 μM ATP, 2 μM Ser/Thr4 peptide, 23° C., values given as concentration bins.
Type: biochemical
Procedure, shortened: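 MAPKAPK2 (2× stock 1 nM) and peptide substrate (2× 4 μM) were preincubated 20 min, then started with ATP (2× stock 6 μM) for 120 min. After 120 min development, coumarin/fluorescein emission ratio gave percent phosphorylation against 0% and 100% phosphopeptide controls.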

Sequence of MAPKAPK2 (P49137 whole entry, species assumed): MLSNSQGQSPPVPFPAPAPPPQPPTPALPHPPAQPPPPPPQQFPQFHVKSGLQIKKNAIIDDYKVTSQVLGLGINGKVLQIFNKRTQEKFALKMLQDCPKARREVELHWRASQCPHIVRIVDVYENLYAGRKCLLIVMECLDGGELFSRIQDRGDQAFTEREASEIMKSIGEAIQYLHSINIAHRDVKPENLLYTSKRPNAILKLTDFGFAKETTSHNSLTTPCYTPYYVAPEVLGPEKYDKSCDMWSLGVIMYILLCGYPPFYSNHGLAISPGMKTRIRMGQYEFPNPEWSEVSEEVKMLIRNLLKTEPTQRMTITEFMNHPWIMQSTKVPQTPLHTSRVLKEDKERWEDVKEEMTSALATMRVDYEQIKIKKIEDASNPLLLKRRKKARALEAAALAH

Row | Structure (SMILES) | IC50
1 | CN(C)C[C@@H]1CCN(c2ccc3c(c2)Cn2cc(-c4ccc(F)cc4)cc2-c2ncnn2-3)C1 [Compound 413, (S)-1-(1-(12-(4-fluorophenyl)-9H-benzo[e]pyrrolo[1,2-a][1,2,4]triazolo[5,1-c][1,4]diazepin-7-yl)pyrrolidin-3-yl)-N,N-dimethylmethanamine] | < 50 nM
2 | CN(C)C[C@H]1CCN(c2ccc3c(c2)Cn2cc(-c4ccc(F)cc4)cc2-c2ncnn2-3)C1 [Compound 414, (R)-1-(1-(12-(4-fluorophenyl)-9H-benzo[e]pyrrolo[1,2-a][1,2,4]triazolo[5,1-c][1,4]diazepin-7-yl)pyrrolidin-3-yl)-N,N-dimethylmethanamine] | 50 to 100 nM
3 | CN(C)C[C@H]1CN(c2ccc3c(c2)Cn2cc(-c4ccc(F)cc4)cc2-c2ncnn2-3)C[C@H]1O [Compound 415, (3S,4S)-4-((dimethylamino)methyl)-1-(12-(4-fluorophenyl)-9H-benzo[e]pyrrolo[1,2-a][1,2,4]triazolo[5,1-c][1,4]diazepin-7-yl)pyrrolidin-3-ol] | 100 to 200 nM
4 | CN(C)C[C@@H]1CN(c2ccc3c(c2)Cn2cc(-c4ccc(F)cc4)cc2-c2ncnn2-3)C[C@@H]1O [Compound 416, (3R,4R)-4-((dimethylamino)methyl)-1-(12-(4-fluorophenyl)-9H-benzo[e]pyrrolo[1,2-a][1,2,4]triazolo[5,1-c][1,4]diazepin-7-yl)pyrrolidin-3-ol] | < 50 nM
5 | CN(C)[C@@H]1CN(c2ccc3c(c2)Cn2cc(-c4ccc(F)cc4)cc2-c2ncnn2-3)C[C@H]1O [Compound 417, (3R,4R)-4-(dimethylamino)-1-(12-(4-fluorophenyl)-9H-benzo[e]pyrrolo[1,2-a][1,2,4]triazolo[5,1-c][1,4]diazepin-7-yl)pyrrolidin-3-ol] | 50 to 100 nM
6 | C[C@H](CO)NC[C@@H]1CCN(c2ccc3c(c2)Cn2cc(-c4ccc(F)cc4)cc2-c2ncnn2-3)C1 [Compound 419, (R)-2-((((S)-1-(12-(4-fluorophenyl)-9H-benzo[e]pyrrolo[1,2-a][1,2,4]triazolo[5,1-c][1,4]diazepin-7-yl)pyrrolidin-3-yl)methyl)amino)propan-1-ol] | < 50 nM
7 | C[C@H](CO)NC[C@H]1CCN(c2ccc3c(c2)Cn2cc(-c4ccc(F)cc4)cc2-c2ncnn2-3)C1 [Compound 420, (R)-2-((((R)-1-(12-(4-fluorophenyl)-9H-benzo[e]pyrrolo[1,2-a][1,2,4]triazolo[5,1-c][1,4]diazepin-7-yl)pyrrolidin-3-yl)methyl)amino)propan-1-ol] | < 50 nM
8 | CN(C)C[C@H]1CN(c2ccc3c(c2)Cn2cc(-c4ccc(F)cc4)cc2-c2ncnn2-3)C[C@@H]1O [Compound 421, (3R,4S)-4-((dimethylamino)methyl)-1-(12-(4-fluorophenyl)-9H-benzo[e]pyrrolo[1,2-a][1,2,4]triazolo[5,1-c][1,4]diazepin-7-yl)pyrrolidin-3-ol] | < 50 nM
9 | CN(C)C[C@@H]1CN(c2ccc3c(c2)Cn2cc(-c4ccc(F)cc4)cc2-c2ncnn2-3)C[C@H]1O [Compound 422, (3S,4R)-4-((dimethylamino)methyl)-1-(12-(4-fluorophenyl)-9H-benzo[e]pyrrolo[1,2-a][1,2,4]triazolo[5,1-c][1,4]diazepin-7-yl)pyrrolidin-3-ol] | < 50 nM
10 | CC(C)(CO)NC[C@@H]1CCN(c2ccc3c(c2)Cn2cc(-c4ccc(F)cc4)cc2-c2ncnn2-3)C1 [Compound 425, (S)-2-(((1-(12-(4-fluorophenyl)-9H-benzo[e]pyrrolo[1,2-a][1,2,4]triazolo[5,1-c][1,4]diazepin-7-yl)pyrrolidin-3-yl)methyl)amino)-2-methylpropan-1-ol] | 50 to 100 nM
11 | CN(C)C[C@H]1CN(c2ccc3c(n2)Cn2cc(-c4ccc(F)cc4)cc2-c2ncnn2-3)C[C@H]1O [Compound 429, (3S,4S)-4-((dimethylamino)methyl)-1-(12-(4-fluorophenyl)-9H-imidazo[2,1-c]pyrido[3,2-e]pyrrolo[1,2-a][1,4]diazepin-7-yl)pyrrolidin-3-ol] | < 50 nM
12 | CN(C)C[C@@H]1CN(c2ccc3c(n2)Cn2cc(-c4ccc(F)cc4)cc2-c2nccn2-3)C[C@@H]1O [Compound 430, (3R,4R)-4-((dimethylamino)methyl)-1-(12-(4-fluorophenyl)-9H-imidazo[2,1-c]pyrido[3,2-e]pyrrolo[1,2-a][1,4]diazepin-7-yl)pyrrolidin-3-ol] | < 50 nM
13 | CN(C)[C@@H]1CN(c2ccc3c(n2)Cn2cc(-c4ccc(F)cc4)cc2-c2nccn2-3)C[C@H]1O [Compound 431, (3R,4R)-4-(dimethylamino)-1-(12-(4-fluorophenyl)-9H-imidazo[2,1-c]pyrido[3,2-e]pyrrolo[1,2-a][1,4]diazepin-7-yl)pyrrolidin-3-ol] | < 50 nM
14 | CN(C)[C@H]1CN(c2ccc3c(n2)Cn2cc(-c4ccc(F)cc4)cc2-c2nccn2-3)C[C@H]1O [Compound 432, (3R,4S)-4-(dimethylamino)-1-(12-(4-fluorophenyl)-9H-imidazo[2,1-c]pyrido[3,2-e]pyrrolo[1,2-a][1,4]diazepin-7-yl)pyrrolidin-3-ol] | 100 to 200 nM
15 | CN(C)[C@@H]1CN(c2ccc3c(n2)Cn2cc(-c4ccc(F)cc4)cc2-c2nccn2-3)C[C@@H]1O [Compound 433, (3S,4R)-4-(dimethylamino)-1-(12-(4-fluorophenyl)-9H-imidazo[2,1-c]pyrido[3,2-e]pyrrolo[1,2-a][1,4]diazepin-7-yl)pyrrolidin-3-ol] | 50 to 100 nM

The remaining lines, values ahead:

Row | IC50 | Structure (SMILES)
16 | 50 to 100 nM | CN(C)C[C@H]1CCN(c2ccc3c(c2)Cn2cc(-c4ccc(F)cc4)cc2-c2nnnn2-3)C1 [Compound 394, (R)-1-(1-(12-(4-fluorophenyl)-9H-benzo[e]pyrrolo[1,2-a]tetrazolo[5,1-c][1,4]diazepin-7-yl)pyrrolidin-3-yl)-N,N-dimethylmethanamine]
17 | < 50 nM | C[C@@H]1CN(c2ccc3c(c2)Cn2cc(-c4ccc(F)cc4)cc2-c2nnnn2-3)C[C@H](C)N1 [Compound 395, 7-(cis-3,5-dimethylpiperazin-1-yl)-12-(4-fluorophenyl)-9H-benzo[e]pyrrolo[1,2-a]tetrazolo[5,1-c][1,4]diazepine]
18 | < 50 nM | Fc1ccc(-c2cc3n(c2)Cc2cc(N4CCC5(CNC5)C4)ccc2-n2nnnc2-3)cc1 [Compound 398, 12-(4-fluorophenyl)-7-(2,6-diazaspiro[3.4]octan-6-yl)-9H-benzo[e]pyrrolo[1,2-a]tetrazolo[5,1-c][1,4]diazepine]
19 | < 50 nM | Fc1ccc(-c2cc3n(c2)Cc2cc(N4CCC5(CC4)CNC5)ccc2-n2nnnc2-3)cc1 [Compound 402, 12-(4-fluorophenyl)-7-(2,7-diazaspiro[3.5]nonan-7-yl)-9H-benzo[e]pyrrolo[1,2-a]tetrazolo[5,1-c][1,4]diazepine]
20 | 50 to 100 nM | Fc1ccc(-c2cc3n(c2)Cc2cc(N4CC5(CCNC5)C4)ccc2-n2nnnc2-3)cc1 [Compound 403, 12-(4-fluorophenyl)-7-(2,6-diazaspiro[3.4]octan-2-yl)-9H-benzo[e]pyrrolo[1,2-a]tetrazolo[5,1-c][1,4]diazepine]
21 | < 50 nM | CN(C)[C@@H]1CCN(c2ccc3c(c2)Cn2cc(-c4ccc(F)cc4)cc2-c2nnnn2-3)C1 [Compound 406, (R)-1-(12-(4-fluorophenyl)-9H-benzo[e]pyrrolo[1,2-a]tetrazolo[5,1-c][1,4]diazepin-7-yl)-N,N-dimethylpyrrolidin-3-amine]
22 | 50 to 100 nM | CN(C)[C@H]1CCN(c2ccc3c(c2)Cn2cc(-c4ccc(F)cc4)cc2-c2nnnn2-3)C1 [Compound 407, (S)-1-(12-(4-fluorophenyl)-9H-benzo[e]pyrrolo[1,2-a]tetrazolo[5,1-c][1,4]diazepin-7-yl)-N,N-dimethylpyrrolidin-3-amine]
23 | 100 to 200 nM | CN[C@@H]1CCN(c2ccc3c(c2)Cn2cc(-c4ccc(F)cc4)cc2-c2ncnn2-3)C1 [Compound 409, (R)-1-(12-(4-fluorophenyl)-9H-benzo[e]pyrrolo[1,2-a][1,2,4]triazolo[5,1-c][1,4]diazepin-7-yl)-N-methylpyrrolidin-3-amine]
24 | 50 to 100 nM | CN[C@H]1CCN(c2ccc3c(c2)Cn2cc(-c4ccc(F)cc4)cc2-c2ncnn2-3)C1 [Compound 410, (S)-1-(12-(4-fluorophenyl)-9H-benzo[e]pyrrolo[1,2-a][1,2,4]triazolo[5,1-c][1,4]diazepin-7-yl)-N-methylpyrrolidin-3-amine]
25 | < 50 nM | CN1CC2(CCN(c3ccc4c(c3)Cn3cc(-c5ccc(F)cc5)cc3-c3ncnn3-4)C2)C1 [Compound 412, 12-(4-fluorophenyl)-7-(2-methyl-2,6-diazaspiro[3.4]octan-6-yl)-9H-benzo[e]pyrrolo[1,2-a][1,2,4]triazolo[5,1-c][1,4]diazepine]
26 | 100 to 200 nM | CN(C)[C@H]1CN(c2ccc3c(c2)Cn2cc(-c4ccc(F)cc4)cc2-c2ncnn2-3)C[C@@H]1O [Compound 418, (3S,4S)-4-(dimethylamino)-1-(12-(4-fluorophenyl)-9H-benzo[e]pyrrolo[1,2-a][1,2,4]triazolo[5,1-c][1,4]diazepin-7-yl)pyrrolidin-3-ol]
27 | 50 to 100 nM | CN(C)[C@@H]1CCN(c2ccc3c(c2)Cn2cc(-c4ccc(F)cc4)cc2-c2ncnn2-3)C1 [Compound 426, (R)-1-(12-(4-fluorophenyl)-9H-benzo[e]pyrrolo[1,2-a][1,2,4]triazolo[5,1-c][1,4]diazepin-7-yl)-N,N-dimethylpyrrolidin-3-amine]
28 | 50 to 100 nM | CN(C)[C@H]1CCN(c2ccc3c(c2)Cn2cc(-c4ccc(F)cc4)cc2-c2ncnn2-3)C1 [Compound 427, (S)-1-(12-(4-fluorophenyl)-9H-benzo[e]pyrrolo[1,2-a][1,2,4]triazolo[5,1-c][1,4]diazepin-7-yl)-N,N-dimethylpyrrolidin-3-amine]
29 | 50 to 100 nM | CN(C)C1CCN(c2ccc3c(c2)Cn2cc(-c4ccc(F)cc4)cc2-c2ncnn2-3)CC1 [Compound 428, 1-(12-(4-fluorophenyl)-9H-benzo[e]pyrrolo[1,2-a][1,2,4]triazolo[5,1-c][1,4]diazepin-7-yl)-N,N-dimethylpiperidin-4-amine]
